From PubChem BioAssay (NCI)
Values joined by “and” are separate entries in the source; they are usually repeats but may differ in a detail not shown here. Equal entries are not always repeated.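 The compound was tested at five concentrations on cells cultured in 96-well plates, with a 48-hour exposure period. At the GI50, growth is halved. At the TGI there is no net growth.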

What was measured:
Test in all cases: NCI-60 cell line screen, 48 h
HOP-92 NSCLC = test system: HOP-92 NSCLC
HOP-62 NSCLC = test system: HOP-62 NSCLC
SK-MEL-5 melanoma = test system: SK-MEL-5 melanoma
SK-MEL-2 melanoma = test system: SK-MEL-2 melanoma
SNB-19 CNS = test system: SNB-19 CNS
HT29 colon = test system: HT29 colon
CAKI-1 renal = test system: CAKI-1 renal
PC-3 prostate = test system: PC-3 prostate
KM12 colon = test system: KM12 colon
SR leukemia = test system: SR leukemia

Row | SMILES | GI50 (HOP-92 NSCLC) [µM] | TGI (HOP-92 NSCLC) | GI50 (HOP-62 NSCLC) [µM] | TGI (HOP-62 NSCLC) | GI50 (SK-MEL-5 melanoma) [µM] | TGI (SK-MEL-5 melanoma) | GI50 (SK-MEL-2 melanoma) [µM] | TGI (SK-MEL-2 melanoma) | GI50 (SNB-19 CNS) [µM] | TGI (SNB-19 CNS) | GI50 (HT29 colon) [µM] | TGI (HT29 colon) | GI50 (CAKI-1 renal) [µM] | TGI (CAKI-1 renal) | GI50 (PC-3 prostate) [µM] | TGI (PC-3 prostate) | GI50 (KM12 colon) [µM] | TGI (KM12 colon) | GI50 (SR leukemia) | TGI (SR leukemia)
1 | NS(=O)(=O)c1ccc(N=Nc2c(O)[nH]c3ccc(C(=O)NCCc4cnc[nH]4)cc23)cc1 | > 25 | > 25 µM | > 25 | > 25 µM | > 25 | > 25 µM | > 25 | > 25 µM | > 25 | > 25 µM | > 25 | > 25 µM | > 25 | > 25 µM | > 25 | > 25 µM | > 25 | > 25 µM | > 25 µM | > 25 µM
2 | O=C(COc1cccc(/C=C2\COc3ccccc3C2=O)c1)c1ccccc1 | 2.94 | 16.8 µM | 5.24 | 18.2 µM | 2.83 | 7.63 µM | 2.75 | 9.68 µM | 11.8 | 24 µM | 2.04 | 4.5 µM | 3.32 | 12.7 µM | 2.11 | 5.16 µM | 1.92 | 3.65 µM | 2.17 µM | 6.66 µM
3 | C=C1C[C@@H](O)[C@@H](Br)C(C)(C)[C@]12CCC(C)(Br)C(Cl)C2 (stereo partly drawn) | 20.3 | > 50 µM and 39.3 µM | 15.4 | > 50 µM and 35.9 µM | 16.7 | > 50 µM and 30.3 µM | 16.5 | > 50 µM and 30.4 µM | 17.6 | > 50 µM and 33.2 µM | 1.95 | 50 µM and 16.4 µM | 18.3 | > 50 µM and 37.2 µM | 0.107 | 10.8 µM and 2.29 µM | 0.28 | 16.7 µM and 10.5 µM | 18.9 µM | > 50 µM and 37.2 µM
4 | CCOC(=O)Nc1ccc2nc(N3CCCCCC3)sc2c1 | 6.15 | 58.9 µM | 3.75 | > 100 µM | 1.04 | 15.9 µM | 2.67 | > 72.5 µM | 2.84 | > 100 µM | 0.44 | 9.87 µM | 2.2 | > 59.5 µM | 3.49 | > 100 µM | 0.661 | > 57.5 µM | 0.405 µM | > 100 µM
5 | COc1ccc(/C(=C/c2ccc3ccccc3c2)c2nn[nH]n2)cc1OC | 4.59 | 79.8 µM | 2.33 | > 100 µM | 4.68 | 23.8 µM | 4.36 | > 100 µM | 7.84 | > 100 µM | 2.69 | 21.6 µM | 2.24 | > 100 µM | 2.36 | > 100 µM | 2.79 | > 100 µM | 2.23 µM | > 100 µM
6 | C=C[C@H]1CN2CCc3c([nH]c4c([C@@H]5CCCN5C)c(O)ccc34)[C@@H]2C[C@@H]1C[C@H]1c2[nH]c3ccccc3c2CCN1C | – | 2.76 µM and 2.91 µM | – | 2.87 µM and 2.74 µM and 2.45 µM | – | 3.02 µM and 3.04 µM | – | 3.37 µM | 1.09 | 3.5 µM and 2.33 µM and 3.2 µM | – | 3.21 µM and 2.95 µM | – | 3 µM and 3.23 µM | – | 3.05 µM and 2.88 µM | 1.15 | 2.61 µM and 2.99 µM | 0.161 µM and 0.197 µM | 520 nM [middle of 4 runs]
7 | CC1NC(C(=O)O)Cc2cc(O)c(O)cc21 (stereo not drawn) | – | > 100 µM | – | > 100 µM | – | > 100 µM | – | > 100 µM | – | > 100 µM | – | > 100 µM | – | > 100 µM | – | > 100 µM | – | > 100 µM | – | > 100 µM
8 | COc1ccc2nc3cc(Cl)ccc3c(NCCNCC(O)CO)c2c1 (stereo not drawn) | 2.8 | 7.18 µM | 1.1 | 4.74 µM | 3.3 | 11.1 µM | 2.01 | 6.97 µM | 1.29 | 12.6 µM | 0.726 | 6.91 µM | 5.79 | 20.3 µM | 2.34 | 10.7 µM | 1.66 | 10.7 µM | 0.597 µM | 10.8 µM
9 | Nc1c(C(=O)c2ccc(C#CCN3CCOCC3)cc2)cnn1-c1ccc(F)cc1 | > 25 | > 25 µM | > 25 | > 25 µM | > 25 | > 25 µM | > 25 | > 25 µM | > 25 | > 25 µM | > 25 | > 25 µM | > 25 | > 25 µM | > 25 | > 25 µM | > 25 | > 25 µM | > 25 µM | > 25 µM
10 | C[C@]12CCCN1CC1=NNC(=O)c3cc(F)cc4[nH]c2c1c34 | 2.71 | 20.7 µM | 20.1 | 89.4 µM | 20.7 | 53.4 µM | 22.3 | 52.4 µM | 25.1 | > 100 µM | 19.2 | > 100 µM | 7.73 | > 100 µM | 20.7 | > 100 µM | 9.6 | 30.3 µM | 3.57 µM | > 100 µM
11 | CS(=O)(=O)c1ccc2c(c1)C(=O)c1c-2n(CCCBr)c(=O)c2cc([N+](=O)[O-])ccc12 | 10.9 | 40 µM | 8.14 | > 100 µM | 1.91 | 15.8 µM | 19.6 | 43.8 µM | 6.03 | > 100 µM | 29.5 | > 100 µM | 16.4 | > 100 µM | 9.94 | > 100 µM | > 100 | > 100 µM | 1.06 µM | > 100 µM
